This passage reports GI50 and TGI results from PubChem BioAssay (NCI).

Experiment in all cases: growth of human tumour cells (NCI), 48 h
The test system of experiment [1] is SK-OV-3 ovarian.
The test system of experiment [2] is SNB-19 CNS.
The subject of experiment [3] is HOP-92 NSCLC.
Experiment [4] has as its system SN12C renal.
Experiment [5] has as its system T-47D breast.
Experiment [6] concerns HS 578T breast.
Experiment [7] concerns EKVX NSCLC.
Experiment [8] has as its system COLO 205 colon.
The test system of experiment [9] is HL-60(TB) leukemia.
Experiment [10] has as its system OVCAR-5 ovarian.

“And” between values parts separate entries of the source, which are not always exact repeats. Equal entries are not always repeated.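 Cells were grown in 96-well plates and exposed to each compound for 48 hours at five concentrations; endpoints were interpolated linearly between bracketing concentrations, or set to the highest concentration if not reached. The concentration for 50% growth inhibition is given as GI50. Definition used: TGI = concentration required for complete inhibition of growth.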

For `O=C(O)c1ccc(C(=O)O)c(C(=O)O)c1.[NH-]C1CCCCC1[NH-].[Pt+2]`, the GI50 in experiment [1] is 40.9 µM; in experiment [2], 11 µM; in experiment [3], 14.8 µM; in experiment [4], 3.19 µM; in experiment [5] it was 6.58 µM; in [6] it was 13.5 µM. In addition, the GI50 in experiment [7] is 29.1 µM; in [8] it was 3.73 µM; in [9], 0.735 µM and 4.08 µM; in [10], 6.32 µM. Moreover, the TGI is more than 97.3 µM in experiment [1]; more than 93.8 µM in experiment [2]; 53.9 µM in [3]; 66.8 µM in [4]; 67.2 µM in [5]; 84.5 µM in experiment [6]. Also, the TGI is 90.8 µM in [7], 40.7 µM in [8], 18.8 µM in [9] and 35.5 µM in experiment [10].

For the compound `CCCOc1ccc(/C=N/Nc2cc(C)nc3ccc(Cl)cc23)cc1`, the GI50 was 1.78 µM in [1]; 1.95 µM in experiment [2]; 1.51 µM in experiment [3]; 1.82 µM in [4]; 1.71 µM in experiment [5]; 2.15 µM in [6]. Besides, the GI50 in experiment [7] is 1.64 µM; in experiment [8], 1.82 µM; in experiment [9], 1.83 µM; in [10] it was 1.87 µM. Also, the TGI is 3.18 µM in [1]; 3.54 µM in experiment [2]; 3.11 µM in [3]; 3.31 µM in [4]; 3.62 µM in [5]; 4.63 µM in [6]. The TGI in experiment [7] was found to be 3.05 µM; in experiment [8], 3.4 µM; in experiment [9], 3.78 µM; in experiment [10] it was 3.28 µM.

For the compound `Oc1ccc(Cc2ccc(O)c(C3CC(c4ccc(Cl)cc4)=NN3)c2)cc1C1CC(c2ccc(Cl)cc2)=NN1` (stereo unspecified), the GI50 in experiment [1] is 3.61 µM; in [2] it was 3.65 µM; in experiment [3], 3.39 µM; in experiment [4], 2.79 µM; in experiment [5], 3.15 µM; in [6], 2.48 µM. Also, the GI50 in experiment [7] is 3.2 µM; in experiment [8] it was 4.17 µM; in [9], 2.73 µM; in [10], 4.45 µM. Further, the TGI in experiment [1] was more than 100 µM; in experiment [2], more than 43.6 µM; in experiment [3] it was 20.9 µM; in experiment [4], more than 37.3 µM; in experiment [5] it was more than 39.7 µM; in experiment [6], 24.8 µM. For the same compound, the TGI in experiment [7] is more than 100 µM; in experiment [8], 23.9 µM; in experiment [9], more than 100 µM; in experiment [10], more than 35.7 µM.

On to `C=C(CN1CCN(c2ccccc2C(F)(F)F)CC1)c1ccc(C(=O)Nc2ccccc2N)cc1`, for which the GI50 is 11 µM in experiment [1]; 24.4 µM in experiment [2]; 1.85 µM in [3]; 6.43 µM in experiment [4]; 7.67 µM in experiment [5]; 12.8 µM in experiment [6]. The GI50 in [7] is 6.7 µM; in experiment [8] it was 11.5 µM; in experiment [9] it was 0.037 µM; in [10] it was 11.8 µM. In addition, the TGI in experiment [1] is more than 100 µM; in experiment [2], more than 100 µM; in experiment [3] it was 30.9 µM; in [4] it was 23.9 µM; in [5], more than 100 µM; in experiment [6], more than 100 µM. Also, the TGI is more than 100 µM in experiment [7], 45.9 µM in experiment [8], 0.756 µM in experiment [9] and more than 100 µM in [10].

For the compound `CCOc1cc(/C=C/C(=O)C(C(=O)/C=C/c2ccc(OC(=O)CNc3nnc(C)s3)c(OCC)c2)C(=O)CNc2nnc(C)s2)ccc1OC(=O)CNc1nnc(C)s1`, the GI50 in experiment [1] was 4.15 µM; in experiment [2] it was 2.52 µM; in experiment [3], 2.13 µM; in experiment [4] it was 1.86 µM; in experiment [5], 3.4 µM; in experiment [6], 2.28 µM. For the same compound, the GI50 in [7] was 3 µM; in experiment [8], 1.7 µM; in experiment [9], 0.554 µM; in experiment [10], 2.43 µM. In addition, the TGI in experiment [1] was 18.2 µM; in experiment [2], 11.1 µM; in experiment [3], 6.6 µM; in [4], 6.4 µM; in [5] it was 35.6 µM; in experiment [6], 12.4 µM. In addition, the TGI amounted to 15.2 µM in [7], 3.54 µM in [8], 3.47 µM in [9] and 5.41 µM in experiment [10].

With `CCCCN(CC)CCCCCCCCCCN1CCCc2cc(OC)ccc21`, the GI50 is 5.19 µM in experiment [1]; 4.01 µM in [2]; 2.19 µM in experiment [3]; 3.36 µM in experiment [4]; 2.11 µM in experiment [5]; 4.2 µM in experiment [6]. The GI50 was 3.57 µM in [7], 1.6 µM in experiment [8], 2.07 µM in experiment [9] and 6.37 µM in experiment [10]. For the same compound, the TGI in experiment [1] is 21 µM; in [2], 18.8 µM; in [3], 6.76 µM; in experiment [4] it was 15.3 µM; in [5] it was 5.83 µM; in experiment [6], more than 100 µM. In addition, the TGI in experiment [7] turned out to be 25.4 µM; in experiment [8], 3.25 µM; in experiment [9], 5 µM; in [10] it was 24.1 µM.

Consider `CN(CSc1ccc(Cl)cc1)c1ccc(CSc2ccc(Cl)cc2)cc1`, for which the GI50 in [1] is 7.9 µM; in experiment [2], 9.14 µM; in [3], 3.56 µM; in [4], 1.82 µM; in experiment [5] it was 4.22 µM; in experiment [6], 3.7 µM. Also, the GI50 was 3.16 µM in [7], 3.59 µM in experiment [8], 1.57 µM in [9] and 13.5 µM in experiment [10]. Moreover, the TGI in experiment [1] amounted to 23.4 µM; in [2], 23.2 µM; in [3] it was 16.9 µM; in [4], 15.9 µM; in experiment [5] it was 72 µM; in experiment [6], 21.1 µM. For the same compound, the TGI is 16 µM in experiment [7], 13.6 µM in experiment [8], 32 µM in experiment [9] and 34.5 µM in experiment [10].

With `NC(=N\N=C/c1ccc(Cl)cc1Cl)/C(N)=N\N=C/c1ccc(Cl)cc1Cl`, the GI50 in experiment [1] was 1.16 µM; in experiment [2], 26.8 µM; in [3], 6.54 µM; in [4], 30.7 µM; in experiment [5], 1.35 µM; in experiment [6], 3.39 µM. Also, the GI50 in experiment [7] is 30.7 µM; in experiment [8], 46.2 µM; in experiment [9], more than 100 µM; in experiment [10] it was more than 100 µM. Also, the TGI was 11.3 µM in experiment [1]; more than 100 µM in experiment [2]; 56.1 µM in experiment [3]; more than 100 µM in experiment [4]; more than 76.4 µM in [5]; more than 30.4 µM in [6]. The TGI in experiment [7], in [8], in experiment [9] and in experiment [10] was more than 100 µM each time.

As to `O=C(Nc1ccc(I)cc1)c1cccc([N+](=O)[O-])c1O`, the GI50 in [1] was 3.05 µM; in experiment [2] it was 3.68 µM; in experiment [3], 0.373 µM; in experiment [4], 3.54 µM; in experiment [5], 2.98 µM; in experiment [6], 4.13 µM. In addition, the GI50 was 2.59 µM in [7], 3.66 µM in [8], 2.96 µM in experiment [9] and 18.1 µM in experiment [10]. The TGI in experiment [1] was 44.9 µM; in [2] it was more than 100 µM; in experiment [3], 3.22 µM; in experiment [4], more than 100 µM; in experiment [5], 12.6 µM; in [6], 87.7 µM. The TGI in experiment [7] is more than 100 µM; in experiment [8], 34.6 µM; in experiment [9], 9.32 µM; in experiment [10], more than 100 µM.

Turning to `C=C1C(=O)OC2CC1C(OC(C)=O)C/C(C)=C/CC/C(C)=C\CCC2(C)O` (stereo unspecified), the TGI is 61.7 µM and 46.6 µM in experiment [1]; 40.1 µM and 32 µM in experiment [2]; 13.2 µM and 9.51 µM in experiment [3]; 11.3 µM and 16.6 µM in experiment [4]; 14.6 µM and 62.7 µM in [5]; 25.1 µM and 26.2 µM in experiment [6]. The TGI was 16 µM and 14 µM in [7]; 14.4 µM and > 100 µM in [8]; 2.64 µM in [9]; 46.3 µM and 30 µM in experiment [10].

For `O=C(/C=C/c1cccc(S(=O)(=O)Nc2ccccc2)c1)NO`, the GI50 was 0.457 µM and 0.486 µM in [1]; 0.841 µM and 0.835 µM in experiment [2]; 0.27 µM and 0.074 µM in experiment [3]; 1.68 µM and 0.244 µM in experiment [4]; 0.227 µM and 0.144 µM in experiment [5]; 1.28 µM and 0.52 µM in experiment [6]. Besides, the GI50 in [7] is 1.13 µM and 0.409 µM; in experiment [8] it was 0.353 µM and 0.118 µM; in experiment [10], 0.428 µM and 0.146 µM. Further, the TGI in experiment [1] was 6.64 µM and > 29.4 µM; in experiment [2] it was 19.5 µM and 41.5 µM; in experiment [3] it was 2.19 µM and 1.21 µM; in experiment [6], > 81.8 µM and 34.9 µM; in [7], more than 100 µM; in [9] it was 29.8 µM. In [10], the TGI was 13.2 µM and > 16.9 µM.
